The numbers were not newly measured in US10398673B2, “Mast cell stabilizers treatment for systemic disorders” (Respivant Sciences GmbH, priority 2014, dated 2019), which cites them from elsewhere.

Regarding `O=C(O)c1cc(=O)c2c(OCC(O)COc3cccc4oc(C(=O)O)cc(=O)c34)cccc2o1` [cromolyn sodium], the oral bioavailability result was “less than 1%”.
